Inhibition and IC50 data for four compounds are collected here from ChEMBL document CHEMBL4725233, “Anti-inflammatory principles from Lindera aggregata” (Bioorg Med Chem Lett, 2020).

In experiment [1] the test system is Neutrophil. Kind of experiment: Antiinflammatory activity in human neutrophils assessed as inhibition of fMLF/cytochalasin B-induced superoxide anion generation at 10 uM preincubated for 5 mins followed by fMLF addition after priming with CB for 3 mins by spectrophotometric analysis relative to control. The format is functional.
Experiment [2] concerns Neutrophil. The experiment is described as follows: Antiinflammatory activity in human neutrophils assessed as inhibition of fMLF/cytochalasin B-induced superoxide anion generation preincubated for 5 mins followed by fMLF addition after priming with CB for 3 mins by spectrophotometric analysis. The format is functional, cell-based.

As usually defined, the inhibition is the drop in the measured response relative to a control, in per cent. The term IC50 denotes the concentration needed to halve the response being measured. For `COc1cc2c(cc1O)C[C@H]1c3c(cc(OC)c(OC)c3-2)CCN1C`, the inhibition at 10 µM in the experiment on Neutrophil [1] was greater than 50%. In addition, in the experiment with Neutrophil [2], the IC50 is 8.36 µM.
Regarding `C=C1O[C@@H]2[C@@H](OC(C)=O)C3=C(C)C(=O)OC3=C[C@@]2(C)[C@@H]2C[C@H]12`, the inhibition at 10 µM in the experiment on Neutrophil [1] is greater than 50%. Besides, in the experiment on Neutrophil [2], the IC50 was determined as 7.45 µM.
Turning to `O=c1c(-c2ccc(O)cc2)coc2cc(O)cc(O)c12` [GENISTEIN], the IC50 in the experiment with Neutrophil [2] stood at 1.11 µM.
`COc1cc2c(cc1O)C[C@H]1c3c(cc(OC)c(O)c3-2)CCN1C` [ISOBOLDINE]: in the experiment with Neutrophil [1], the inhibition at 10 µM is greater than 50%. For the same compound, the half-inhibitory concentration (IC50) in the experiment with Neutrophil [2] came out at 5.81 µM.
